Where two headings read alike, the source gives them in different places.
What was measured:
SARS-CoV-2 nsp3-mac1 [1] = target: T1, SARS-CoV-2 nsp3-mac1 (Severe acute respiratory syndrome coronavirus 2, UniProt P0DTD1); experiment: biochemical; assay type: biochemical; conditions: SARS-CoV-2 nsp3 macrodomain TR-FRET single point
SARS-CoV-2 nsp3-mac1 [2] = target: T1, SARS-CoV-2 nsp3-mac1; experiment: biochemical; set-up: SARS-CoV-2 nsp3 macrodomain TR-FRET single point, per cent inhibition, n=2
[3] = read-out: perc_inhibition_mean, batch_name=ASAP-0000416-001
[4] = read-out: perc_inhibition_mean, batch_name=ASAP-0000417-001
[5] = read-out: perc_inhibition_mean, batch_name=ASAP-0000418-001
[6] = read-out: perc_inhibition_mean, batch_name=ASAP-0000419-001
[7] = read-out: perc_inhibition_mean, batch_name=ASAP-0000420-001
[8] = read-out: perc_inhibition_mean, batch_name=ASAP-0000421-001
[9] = read-out: perc_inhibition_mean, batch_name=ASAP-0000422-001
[10] = read-out: perc_inhibition_mean, batch_name=ASAP-0000423-001
[11] = read-out: perc_inhibition_mean, batch_name=ASAP-0000424-001
[12] = read-out: perc_inhibition_mean, batch_name=ASAP-0000425-001
[13] = read-out: perc_inhibition_mean, batch_name=ASAP-0000426-001
[14] = read-out: perc_inhibition_mean, batch_name=ASAP-0000427-001
[15] = read-out: perc_inhibition_mean, batch_name=ASAP-0000428-001
[16] = read-out: perc_inhibition_mean, batch_name=ASAP-0000429-001
[17] = read-out: perc_inhibition_mean, batch_name=ASAP-0000430-001
[18] = read-out: perc_inhibition_mean, batch_name=ASAP-0000448-001
[19] = read-out: perc_inhibition_mean, batch_name=ASAP-0000449-001

| Compound | perc_inhibition_mean (SARS-CoV-2 nsp3-mac1 [1]; concentration 49.75 uM) [%] | perc_inhibition_mean (SARS-CoV-2 nsp3-mac1 [1]; concentration 99.5 uM) [%] | other results |
| --- | --- | --- | --- |
| Cc1ccc(C(=O)N(CCC(=O)N2CCNCC2)Cc2cccc(Cl)c2)[nH]1 [ASAP-0000416] | -5.904 | -3.936 | inhibition at 49.75 µM (SARS-CoV-2 nsp3-mac1 [2]; [3]): -5.9%; inhibition at 99.5 µM (SARS-CoV-2 nsp3-mac1 [2]; [3]): -3.94% |
| O=C(CCN(Cc1cccc(Cl)c1)C(=O)[C@@H]1C[C@@H](O)CN1)N1CCNCC1 [ASAP-0000417] | -3.538 | 4.743 | inhibition at 49.75 µM (SARS-CoV-2 nsp3-mac1 [2]; [4]): -3.54%; inhibition at 99.5 µM (SARS-CoV-2 nsp3-mac1 [2]; [4]): 4.74% |
| Cn1ncnc1C(=O)N1CCC(c2ccn3ncc(C(=O)N4CCCCC4)c3c2)CC1 [ASAP-0000418] | 2.38 | 20.346 | inhibition at 49.75 µM (SARS-CoV-2 nsp3-mac1 [2]; [5]): 2.38%; inhibition at 99.5 µM (SARS-CoV-2 nsp3-mac1 [2]; [5]): 20.3% |
| O=C(c1nc(=O)[nH][nH]1)N1CCC(c2ccn3ncc(C(=O)N4CCCCC4)c3c2)CC1 [ASAP-0000419] | 23.445 | 34.579 | inhibition at 49.75 µM (SARS-CoV-2 nsp3-mac1 [2]; [6]): 23.4%; inhibition at 99.5 µM (SARS-CoV-2 nsp3-mac1 [2]; [6]): 34.6% |
| O=C(c1cc(O)ncn1)N1CCC(c2ccn3ncc(C(=O)N4CCCCC4)c3c2)CC1 [ASAP-0000420] | 19.125 | 30.869 | inhibition at 49.75 µM (SARS-CoV-2 nsp3-mac1 [2]; [7]): 19.1%; inhibition at 99.5 µM (SARS-CoV-2 nsp3-mac1 [2]; [7]): 30.9% |
| O=C(c1c[nH]nn1)N1CCC(c2ccn3ncc(C(=O)N4CCCCC4)c3c2)CC1 [ASAP-0000421] | 14.65 | 25.652 | inhibition at 49.75 µM (SARS-CoV-2 nsp3-mac1 [2]; [8]): 14.7%; inhibition at 99.5 µM (SARS-CoV-2 nsp3-mac1 [2]; [8]): 25.7% |
| O=C(c1ccc(O)nc1)N1CCC(c2ccn3ncc(C(=O)N4CCCCC4)c3c2)CC1 [ASAP-0000422] | 10.998 | 26.485 | inhibition at 49.75 µM (SARS-CoV-2 nsp3-mac1 [2]; [9]): 11%; inhibition at 99.5 µM (SARS-CoV-2 nsp3-mac1 [2]; [9]): 26.5% |
| Cc1c[nH]nc1C(=O)N1CCC(c2ccn3ncc(C(=O)N4CCCCC4)c3c2)CC1 [ASAP-0000423] | 8.474 | 27.38 | inhibition at 49.75 µM (SARS-CoV-2 nsp3-mac1 [2]; [10]): 8.47%; inhibition at 99.5 µM (SARS-CoV-2 nsp3-mac1 [2]; [10]): 27.4% |
| CN(C(=O)c1cnn2ccc(C3CCN(C(=O)c4ccccc4)CC3)cc12)c1ccccc1O [ASAP-0000424] | 10.02 | 15.878 | inhibition at 49.75 µM (SARS-CoV-2 nsp3-mac1 [2]; [11]): 10%; inhibition at 99.5 µM (SARS-CoV-2 nsp3-mac1 [2]; [11]): 15.9% |
| COC[C@@H](Nc1ncnc2nc[nH]c12)c1ccc(C)o1 [ASAP-0000425] | -4.638 | 3.942 | inhibition at 49.75 µM (SARS-CoV-2 nsp3-mac1 [2]; [12]): -4.64%; inhibition at 99.5 µM (SARS-CoV-2 nsp3-mac1 [2]; [12]): 3.94% |
| CC(C)c1nc([C@@H](C)Nc2ncnc3nc[nH]c23)cs1 [ASAP-0000426] | 2.645 | 3.067 | inhibition at 49.75 µM (SARS-CoV-2 nsp3-mac1 [2]; [13]): 2.65%; inhibition at 99.5 µM (SARS-CoV-2 nsp3-mac1 [2]; [13]): 3.07% |
| CN(c1ncnc2[nH]ncc12)[C@@H](CCO)c1ccccc1 [ASAP-0000427] | 8.856 | 5.14 | inhibition at 49.75 µM (SARS-CoV-2 nsp3-mac1 [2]; [14]): 8.86%; inhibition at 99.5 µM (SARS-CoV-2 nsp3-mac1 [2]; [14]): 5.14% |
| CC(C)[C@H]1CNC(=O)CN1c1ncnc2[nH]ccc12 [ASAP-0000428] | 6.836 | 17.564 | inhibition at 49.75 µM (SARS-CoV-2 nsp3-mac1 [2]; [15]): 6.84%; inhibition at 99.5 µM (SARS-CoV-2 nsp3-mac1 [2]; [15]): 17.6% |
| Cc1nc(NC(=O)Cn2cnc3ccccc3c2=O)c2cc[nH]c2n1 [ASAP-0000429] | -4.067 | -4.886 | inhibition at 49.75 µM (SARS-CoV-2 nsp3-mac1 [2]; [16]): -4.07%; inhibition at 99.5 µM (SARS-CoV-2 nsp3-mac1 [2]; [16]): -4.89% |
| O=C(c1nnn[nH]1)N1CCC(c2ccn3ncc(C(=O)N4CCCCC4)c3c2)CC1 [ASAP-0000430] | 55.152 | 69.012 | inhibition at 49.75 µM (SARS-CoV-2 nsp3-mac1 [2]; [17]): 55.2%; inhibition at 99.5 µM (SARS-CoV-2 nsp3-mac1 [2]; [17]): 69% |
| Cn1cc([C@H]2CSCCN2c2ncnc3[nH]ccc23)cn1 [ASAP-0000448] | -6.49 | -3.463 | inhibition at 49.75 µM (SARS-CoV-2 nsp3-mac1 [2]; [18]): -6.49%; inhibition at 99.5 µM (SARS-CoV-2 nsp3-mac1 [2]; [18]): -3.46% |
| Cn1nc(C(=O)N2CCC(c3ccn4ncc(C(=O)N5CCCCC5)c4c3)CC2)cc1C(=O)O [ASAP-0000449] | 42.655 | 59.743 | inhibition at 49.75 µM (SARS-CoV-2 nsp3-mac1 [2]; [19]): 42.7%; inhibition at 99.5 µM (SARS-CoV-2 nsp3-mac1 [2]; [19]): 59.7% |

Reference: paper doi:10.1101/2024.08.19.608619, “Discovery of potent SARS-CoV-2 nsp3 macrodomain inhibitors uncovers lack of translation to cellular antiviral response” (bioRxiv, 2024)
